Legend:
[1] = test system: histone H4 acetylation; assay: Histone H4 hyperacetylation Western blot in embryos; format: in vivo, zebrafish; conditions: 24 hpf embryos treated 6 hours; 3 μM PTBA, 25 μM PBA, 200 nM TSA
Protocol: It was next determined whether the HDACi function of PTBA was quantifiable in vivo. 24 hpf embryos were treated with 3 μM PTBA, 25 μM PBA, or 200 nM TSA for 6 hours. Protein extracts were prepared and immunoblotted with an anti-hyperacetylated histone H4 antibody. […] Furthermore, increasing the compound concentration caused a corresponding increase in hyperacetylation (FIG. 21).
SDS-PAGE and Western blotting were performed as described previously with some modifications (Noel, E. S. et al. Organ-specific requirements for Hdac1 in liver and pancreas formation. Dev Biol 322, 237-250, (2008)). Proteins were separated on 18% SDS-PAGE gels. Membranes were incubated at 4° C. overnight with 1:1000 anti-hyperacetylated histone H4 antibody (06-946, Millipore) or 1:1000 anti-α-tubulin antibody (Sigma-Aldrich) in PBT containing 5% nonfat milk.

[2] = test system: zebrafish larvae; assay: Phenotypic scoring of edema and survival in zebrafish larvae at 72 hpf; format: in vivo
From the text: (§1) PTBA was synthesized as described below. Hydroxyurea and aphidicolin were obtained from Sigma-Aldrich.
Wild type: no visible edema or developmental delay.

[3] = test system: cyp26a1, cmlc2; assay: In situ hybridization for RA-responsive genes in 18-somite embryos; format: in vivo, zebrafish; conditions: 3 μM
Protocol: (§2) In situ hybridization and immunocytochemistry: In situ hybridization was performed as previously described with some modifications. 142 Hybridization temperature was 65° C. Embryos were blocked in 2% blocking reagent (Roche) with 5% sheep serum in MAB (100 mM maleic acid and 150 mM NaCl [pH 7.5]). Whole-mount immunocytochemistry with 1:25 mouse anti-α6F antibody (Developmental Studies Hybridoma Bank) and 1:100 Cy3 secondary antibody (Jackson ImmunoResearch) was performed as described previously. 108 Embryos were embedded in JB-4 for sectioning per the manufacturer's instructions (Polysciences), sectioned at 5 μm, and mounted with Cytoseal 60 (Richard-Allan Scientific).
HDACis are believed to lower the threshold of RA necessary to activate transcription. If PTBA treatment facilitates activation of the RA pathway, then expression of genes responsive to RA signaling should change. […] In a previous study, cmlc2 expression was assessed for RAdependent effects in 18-somite embryos (Keegan, B. R., Feldman, J. L., Begemann, G., Ingham, P. W. & Yelon, D. Retinoic acid signaling restricts the cardiac progenitor pool. Science 307, 247-249, (2005)), therefore embryos were collected at the 18-somite stage for continuity. […]

[4] = test system: pax2a, pax8 expression (kidney field); assay: In situ hybridization for renal progenitor markers pax2a, pax8 / kidney field; format: in vivo, zebrafish
Protocol: as §1, §2

[5] = test system: human HDACs (HeLa cell nuclear extract); assay: Fluorescence histone deacetylation assay with HeLa cell nuclear extract; format: biochemical
[6] = test system: BALB/c mice, severe IR-AKI; assay: Severe ischemia-reperfusion AKI (IR-AKI); format: in vivo, mouse; conditions: 7 days at 50 mg/ml starting 24 hrs after severe IR
Protocol: Surgeries were performed on a water-bath heated platform at 38° C. on 10-12 week old male BALB/c mice. For moderate IR-AKI, mice underwent a right nephrectomy followed by left renal pedicle clamping (800 μm pressure clamp, FST 18052-03). The clamp was released after 26 minutes, and tissue reperfusion was confirmed before completing the surgery. Mice were treated daily with indicated doses of compounds or equivalent volume of 20% 2-hydroxypropyl-β-cyclodextrin in water as vehicle control starting 24 h after injury. Since initial injury with this model is variable, mice were randomly allocated vehicle or m4PTB treatment if their serum creatinine levels were 0.8 to 1.2 mg/dl 24 h post IR injury. Other mice were excluded from further analysis and euthanized. To induce severe IR-AKI, mice underwent left renal pedicle clamping for 30 minutes and delayed contralateral nephrectomy was performed after 8 days.
For mouse studies, kidney sections were stained using Periodic Acid-Schiff (PAS) to assess renal tubular injury. Tubular injury (casts, dilated tubules, epithelial cell blebbing, and vacuolization, loss of brush borders or nuclei) was scored as described. Sirius red staining was performed using an established protocol used to evaluate renal fibrosis/collagen accumulation in kidney sections. To quantify Sirius red staining we used an Olympus BX-41 microscope equipped with an Olympus DP-72 digital camera system and polarizing light filter. Results are expressed as the mean percent fibrosis for all of the images per slide region (Sirius red positive/total surface area).
We used of 2-hydroxypropyl-β-cyclodextrin (CD, Sigma), a low toxicity drug formulation vehicle that has been well characterized and used extensively as a hydrophobic drug delivery vehicle. We could achieve concentrations of up to ˜12 mg/ml of PTBA analogues in 20% CD in water (100 mg/kg in volumes of ˜150-250 μl), and daily IP injections with 200 μl 20% CD in water had no effect on renal functional recovery following IR-AKI. Therefore all studies were performed using compounds dissolved in 20% CD. To assess dosing and biological activity of PTBA analogues in mice, CD1 mice were injected with varying doses of compounds IP and kidneys isolated at different time point for histone extraction and analysis of histone H4 acetylation, a marker of HDAC inhibitor activity, as outlined below. Based on results of these studies, mice were treated daily with 1, 10, 50 or 100 mg/kg of compound or equivalent volume of 20% CD vehicle control starting 24 h after injury.
˜30 μl blood was obtained by tail vein bleed at different time points, and serum samples frozen after confirming that they had not undergone hemolysis (which interferes with enzymatic analysis for serum creatinine). Serum creatinine was evaluated in duplicate samples using a commercially available enzymatic cascade assay (Pointe Scientific, requires only ˜7 μl of serum). […] Blood Urea Nitrogen (BUN) was determined in duplicate samples using a colorimetric enzymatic assay kit (Infinity Urea, Thermo Scientific), and spot urinary albumin/creatinine ratios determined using a mouse albumin ELISA and urinary creatinine assay kit (Albuwell and Creatinine Companion, Exocell).
Compounds 22, 25, 29, 36, and 186 were injected for 7 days at […] starting 24 hrs after severe IR treatment. […] Fibrotic (scar) tissue was measured using Sirus Red after 28 days for various markers of fibrosis.

| SMILES | histone H4 hyperacetylation [1] | death by 72 hpf ([2]; 3 μM) | edema in 72 hpf larvae ([2]; 3 μM, treatment initiated at 15 somites or later) | phenotype in initial chemical screen ([2]; 10 μM, larvae at 72 hpf) | death by 72 hpf ([2]; 10 μM, n=90) | larvae with edemic phenotype / pericardial edema at 72 hpf ([2]; treated from 2 hpf, 3 μM PTBA, 25 μM PBA, 200 nM TSA) | embryos with decreased cmlc2 expression [3] | embryos with increased cyp26a1 expression [3] | embryos with expanded pax2a expression ([4]; 3 μM, 10-somite embryos) | pax2a expression at 24 hpf ([4]; 3 μM, treatment begun at 16.5 hpf (15 somites)) | pax2a expression at 24 hpf ([4]; 3 μM, treatment initiated between 2 hpf and 14 hpf (10 somites)) | effect on size of the kidney field / renal markers (in situ hybridization) ([4]; screen hits, data not shown) | HDAC activity, % of the control value ([5]; 5 mM compound, 10 μg HeLa extract) | reduction of HDAC activity ([5]; millimolar concentrations) | fibrosis after 28 days (Sirus Red, markers of fibrosis) [6] | serum creatinine at day 9 [6] |
| --- | --- | --- | --- | --- | --- | --- | --- | --- | --- | --- | --- | --- | --- | --- | --- | --- |
| O=C(O)CCCSc1ccccc1 [PTBA, 4-(phenylthio)butanoic acid] | hyperacetylation was observed | without causing significant death | lack of edema | generated pericardial edema | died before 72 hpf | 92% | 100% | 100% | 95% | no kidney field expansion | expanded pax2a expression | appeared to expand the expression of some renal markers | 30% | 70% | – | – |
| COC(=O)CCCSc1ccccc1 [UPHD-00025, methyl 4-(phenylsulfanyl) butanoate] | – | – | – | – | – | – | – | – | – | – | – | – | – | – | most reduction in fibrosis | better activity |

From US10233201B2, “Class of HDAC inhibitors expands the renal progenitor cells population and improves the rate of recovery from acute kidney injury” (University of Pittsburgh—Of the Commonwealth System of …, priority 2012, dated 2019)
